This passage reports IC50 results from patent publication US9035059B2, “Nitrogen-containing condensed heterocyclic compound” (TAISHO PHARMACEUTICAL CO., LTD., priority 2011, dated 2015).

This experiment concerns the target human MGAT2 (Homo sapiens (Human), UniProt Q3SYC2). In words: Test Example 1: Test of MGAT2 inhibitory action (human MGAT2 enzyme fraction from Sf9 cells, free CoA detected by CPM fluorescence). It counts as biochemical. The following applies: human MGAT2 enzyme fraction expressed in Sf9 insect cells, 0.5 μg/ml, 2-monooleoyl glycerol 0.78 μM, oleoyl-CoA 5.3 μM, room temperature 20 min. On the procedure: The MGAT2 inhibitory action of the inventive compound was measured by the methods described in Test Examples as shown below. The MGAT enzyme activity was measured based on the amount of an indicator, free Coenzyme A (CoA) which is generated by the reaction shown below, using a sulfhydryl reactive pigment (7-diethylamino-3-(4-maleimidophenyl)-4-methylcoumarin; hereinafter, sometimes abbreviated as CPM).
A test for MGAT2 inhibitory action of test compounds was conducted in accordance with a partially modified version of the method described in John F. Lockwood et al., Am. J. Physiol. Endocrinol. Metab., 2003, 285, E927.
Bac-to-Bac Baculovirus Expression System (Life Technologies Japan) was used to express human MGAT2 in insect cells (Sf9) (Life Technologies Japan). These cells were sonicated and centrifuged at 100,000 g×1 hr to give a precipitate. The precipitate was used as a human MGAT2 enzyme fraction in this assay.
This test was conducted using a black flat-bottom 96-well plate (Corning). A buffer solution with final concentrations of 5 mM magnesium chloride, 100 mM sucrose and 100 mM Tris-HCl (pH=7.5) was prepared and test compounds prepared in various concentrations using dimethyl sulfoxide were added thereto to give a final dimethyl sulfoxide concentration of 1%. The MGAT2 enzyme fraction was added thereto to give a final concentration of 0.5 μg/ml and phosphatidylcholine, 2-monooleoyl glycerol and oleoyl-CoA were added thereto to give final concentrations of 7.5 μM, 0.78 μM and 5.3 μM, respectively, before starting a reaction. The reaction was performed at room temperature for 20 min.
After 20 min, a CPM-containing solution was added thereto to give a final concentration of 5 μM before stopping the MGAT reaction. After 1 hr, a fluorescence detector (Infinite 200 from Tecan Japan) was used to measure the CPM fluorescence value of each well (excitation 380 nm, emission 460 nm).

The mark [1] stands for this setting: read-out: Activity Value [nM] (IC50, concentration at which 50% of produced free CoA was inhibited).

Read-outs that look alike come from different tables or passages of the source.

human MGAT2, sequence (Q3SYC2 whole entry): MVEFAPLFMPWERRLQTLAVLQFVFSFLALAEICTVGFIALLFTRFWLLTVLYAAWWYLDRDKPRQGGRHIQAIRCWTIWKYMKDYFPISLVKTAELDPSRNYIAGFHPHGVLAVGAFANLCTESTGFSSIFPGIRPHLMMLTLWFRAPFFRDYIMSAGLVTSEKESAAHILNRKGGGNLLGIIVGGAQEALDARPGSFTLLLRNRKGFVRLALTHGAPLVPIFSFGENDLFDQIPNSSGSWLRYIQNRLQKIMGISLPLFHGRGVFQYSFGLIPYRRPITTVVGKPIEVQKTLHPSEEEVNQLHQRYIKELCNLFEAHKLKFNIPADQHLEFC

Take `CC(C)(C)c1ncc(CN2CCc3cc(S(=O)(=O)Nc4ccc(CCCC5CCCC5)cc4F)ccc3C2)s1` [Working Example 6-48]: under setting [1], the IC50 turned out to be 49 nM.
Still for that read-out and setting: then `CC(C)(C)c1ccc(NC(=O)N2Cc3ccc(S(=O)(=O)Nc4ccc(OCCCC(F)(F)F)cc4F)cc3C2)cc1` [18-26], with 185 nM.
As to `CCCCCCOc1ccc(NS(=O)(=O)c2ccc3c(c2)CCN(C(=O)Nc2ccc(CCCC)cc2)C3)c(F)c1` [14-3], the IC50 under setting [1] came to 76 nM.
Still for that read-out and setting: then `COc1ccc(NS(=O)(=O)c2ccc3c(c2)CN(C(=O)Nc2ccc(C(C)(C)C)cc2)C3)c(F)c1` [14-16], with 164 nM.
Still for that read-out and setting: the result for `O=S(=O)(Nc1ccc(CCCC2CCCC2)cc1F)c1ccc2c(c1)CCN(Cc1ccc(C(F)(F)F)nc1)C2` [Working Example 6-54] reads 180 nM; that for `CC(C)(C)[C@H]1CC[C@@H](C(=O)N2CCc3cc(S(=O)(=O)Nc4ccc(CCCC5CCCC5)cc4F)ccc3C2)CC1` [Working Example 1-7], 292 nM.
Regarding `CC(C)(C)c1ccc(NC(=O)N2Cc3ccc(S(=O)(=O)Nc4ccc(OCCOC5CCCC5)cc4F)cc3C2)cc1` [18-29], the IC50 under setting [1] came out at 128 nM.
With `CC(C)(C)c1ccc(CCN2CCc3cc(S(=O)(=O)Nc4ccc(CCCC5CCCC5)cc4F)ccc3C2)cc1` [Working Example 6-17], the IC50 under setting [1] came to 28 nM.
In the case of `CCCCCCCc1ccc(NS(=O)(=O)c2ccc3c(c2)CCN(C(C)Cc2ccc(C(C)(C)C)cc2)C3)c(F)c1` (single isomer, unassigned) [Working Example 10-7], the IC50 (listed as 10-7, read-out: Activity Value [nM] (IC50, concentration at which 50% of produced free CoA was inhibited)) was determined as 31 nM.
With `CC(c1ccc(C(C)(C)C)nc1)N1CCc2cc(S(=O)(=O)Nc3ccc(OCCCc4ccccc4)cc3F)ccc2C1` (centres unmarked) [Working Example 11-2], the IC50 under setting [1] turned out to be 121 nM.
In the case of `CC(C)(C)c1ccc(NC(=O)N2Cc3ccc(S(=O)(=O)Nc4ccc(OCC5CCCCC5)cc4F)cc3C2)cc1` [18-10], under setting [1], the IC50 was 230 nM.
On the same count and under the same terms, then `CCCCCCCOc1ccc(NS(=O)(=O)c2ccc3c(c2)CN(C(=O)Nc2ccc(C(C)(C)C)cc2)C3)c(F)c1` [19-8], with 28 nM; and `CCCCCCCc1ccc(NS(=O)(=O)c2ccc3c(c2)CCN(CCCCCC)C3)c(F)c1` [Working Example 7-35], with 220 nM; and `COc1cc(F)cc(F)c1NS(=O)(=O)c1ccc2c(c1)CN(C(=O)Nc1ccc(C(C)(C)C)cc1)C2` [14-21], with 193 nM.
The same measure, in the same setting: the result for `CCCCCCOc1ccc(NS(=O)(=O)c2ccc3c(c2)CN(C(=O)Nc2ccc(C(C)(C)C)cc2)C3)c(F)c1` [18-6] reads 43 nM.
Same read-out and setting: then `O=S(=O)(Nc1ccc(CCCC2CCCC2)cc1F)c1ccc2c(c1)CCN(CCc1ccc(OC(F)(F)F)cc1)C2` [22-2], with 256 nM; and `CC(C)(C)c1ccc(CCN2CCc3cc(S(=O)(=O)Nc4ccc(CCCC5CCCCC5)cc4F)ccc3C2)cc1` [Working Example 6-19], with 62 nM.
As to `CC(C)(C)c1ccc(NC(=O)N2Cc3ccc(S(=O)(=O)Nc4ccc(OCCOc5ccc(F)cc5)cc4F)cc3C2)cc1` [18-19], the IC50 under setting [1] was determined as 125 nM.
Still for that read-out and setting: then `CC(C)(C)c1ccc(NC(=O)N2Cc3ccc(S(=O)(=O)Nc4ccc(OCCC5CC5)cc4F)cc3C2)cc1` [18-31], with 266 nM.
Regarding `CCCCCCOc1ccc(NS(=O)(=O)c2ccc3c(c2)CCN(C(C)Cc2ccc(C(C)(C)C)cc2)C3)c(F)c1` (single isomer, unassigned) [Working Example 10-3], the IC50 (listed as 10-3, read-out: Activity Value [nM] (IC50, concentration at which 50% of produced free CoA was inhibited)) amounted to 26 nM.
As to `CC(C)CCCOc1ccc(NS(=O)(=O)c2ccc3c(c2)CN(C(=O)Nc2ccc(C(C)(C)C)cc2)C3)c(F)c1` [19-7], the IC50 under setting [1] amounted to 99 nM.
Consider `CC(C)(C)c1ccc(CCN2CCc3cc(S(=O)(=O)Nc4ccc(OCCCCc5ccccc5)cc4F)ccc3C2)cc1` [Working Example 8-1, 2-[2-(4-tert-Butylphenyl)ethyl]-N-[2-fluoro-4-(4-phenylbutoxy)phenyl]-1,2,3,4-tetrahydroisoquinoline-6-sulfonamide], for which, under setting [1], the IC50 worked out at 70 nM.
Still for that read-out and setting: the result for `CC(c1ccc(C(C)(C)C)nc1)N1CCc2cc(S(=O)(=O)Nc3ccc(OCCCCCc4ccccc4)cc3F)ccc2C1` (centres unmarked) [23-2] reads 14 nM.
On to `CC(Cc1ccc(C(C)(C)C)cc1)N1CCc2cc(S(=O)(=O)Nc3ccc(OCCCC4CCCCC4)cc3F)ccc2C1` (single isomer, unassigned) [Working Example 10-14], for which the IC50 (listed as 10-14, read-out: Activity Value [nM] (IC50, concentration at which 50% of produced free CoA was inhibited)) came out at 106 nM.
On to `CCCCCCCCOc1ccc(NS(=O)(=O)c2ccc3c(c2)CCN(C(C)Cc2ccc(C(C)(C)C)cc2)C3)c(F)c1` (centres unmarked) [Working Example 10-9], for which the IC50 (listed as 10-9, read-out: Activity Value [nM] (IC50, concentration at which 50% of produced free CoA was inhibited)) was found to be 96 nM.
For the compound `CCCCCCOc1ccc(NS(=O)(=O)c2ccc3c(c2)CCN(CCc2ccc(C(C)(C)CO)cc2)C3)c(F)c1` [Working Example 6-30], under setting [1], the IC50 was 214 nM.
On the same count and under the same terms, then `C/C=C\CCCCCOc1ccc(NS(=O)(=O)c2ccc3c(c2)CN(C(=O)Nc2ccc(C(C)(C)C)cc2)C3)c(F)c1` [19-4], with 2 nM; and `CC(C)(C)c1ccc(NC(=O)N2Cc3ccc(S(=O)(=O)Nc4ccc(OCCC5CCCCC5)cc4F)cc3C2)cc1` [18-11], with 29 nM.
With `CC(Cc1ccc(C(C)(C)C)cc1)N1CCc2cc(S(=O)(=O)Nc3ccc(OCCCCCc4ccccc4)cc3F)ccc2C1` (single isomer, unassigned) [Working Example 10-11], the IC50 (listed as 10-11, read-out: Activity Value [nM] (IC50, concentration at which 50% of produced free CoA was inhibited)) is 80 nM.
On to `CC(C)(C)c1ccc(NC(=O)N2Cc3ccc(S(=O)(=O)Nc4ccc(OCCCC5CCCCC5)cc4F)cc3C2)cc1` [18-12], for which the IC50 under setting [1] was determined as 26 nM.
The same measure, in the same setting: then `CC(C)(C)c1ccc(CCN2CCc3cc(S(=O)(=O)Nc4ccc(OCCCCCc5ccccc5)cc4F)ccc3C2)cc1` [17-5], with 24 nM; and `O=C(NC1CCCCC1)N1CCc2cc(S(=O)(=O)Nc3ccc(CCCC4CCCC4)cc3F)ccc2C1` [14-36], with 69 nM; and `CCCCCCOc1ccc(NS(=O)(=O)c2ccc3c(c2)CCN(C(=O)Nc2ccc(C(C)(C)C)cc2)C3)c(F)c1` [14-4], with 98 nM.
Same read-out and setting: then `CC(C)(C)c1ccc(CCN2CCc3cc(S(=O)(=O)Nc4ccc(CCCC5CCOCC5)cc4F)ccc3C2)cc1` [Working Example 6-75], with 24 nM.
In the case of `CCCCCCCc1ccc(NS(=O)(=O)c2ccc3c(c2)CCN(C(C)Cc2ccc(C(C)(C)C)cc2)C3)c(F)c1` (single isomer, unassigned) [Working Example 10-8], the IC50 (listed as 10-8, read-out: Activity Value [nM] (IC50, concentration at which 50% of produced free CoA was inhibited)) is 62 nM.
With `CCCCCCCOc1ccc(NS(=O)(=O)c2ccc3c(c2)CCN(CCc2ccc(C(C)(C)C)cc2)C3)c(F)c1` [17-1, 2-[2-(4-tert-Butylphenyl)ethyl]-N-[2-fluoro-4-(heptyloxy)phenyl]-1,2,3,4-tetrahydroisoquinoline-6-sulfonamide], the IC50 under setting [1] is 40 nM.
Take `COc1ccc(OCCOc2ccc(NS(=O)(=O)c3ccc4c(c3)CN(C(=O)Nc3ccc(C(C)(C)C)cc3)C4)c(F)c2)cc1` [18-22]: under setting [1], the IC50 came out at 120 nM.
The same measure, in the same setting: then `O=S(=O)(Nc1ccc(CCCC2CCCC2)cc1F)c1ccc2c(c1)CCN(Cc1ccc(OC(F)(F)C(F)F)cc1)C2` [Working Example 7-50], with 273 nM; and `O=S(=O)(Nc1ccc(CCCC2CCCC2)cc1F)c1ccc2c(c1)CCN(Cc1cnc(C(F)(F)F)nc1)C2` [Working Example 6-78], with 228 nM; and `CC(C)(C)c1ccc(C(=O)N2CCc3cc(S(=O)(=O)Nc4ccc(CCCC5CCCC5)cc4F)ccc3C2)cc1` [Working Example 1-4], with 211 nM.
Same read-out and setting: the result for `CCCCCCOc1ccc(NS(=O)(=O)c2ccc3c(c2)CCN(CCc2ncc(C(C)(C)C)cn2)C3)c(F)c1` [Working Example 9-21] reads 164 nM.
